In ChEMBL document CHEMBL1201862, “PubChem BioAssay data set” (2004):
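Tested at 5 concentrations; 48 h exposure; 96-well plates; endpoints linearly interpolated, else capped at highest concentration. GI50 = concentration required for 50% inhibition of growth.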 Active and inactive are the calls of the source. Rule as the data show it: active = GI50 up to about 1.1 µM and inactive = higher.

Experiments:
Assay in all cases: NCI-60 cell line screen, 48 h
UACC-257 = test system: UACC-257
NCI-H460 = test system: NCI-H460
HOP-62 = test system: HOP-62
CAKI-1 = test system: CAKI-1
SR = test system: SR
NCI/ADR-RES = test system: NCI/ADR-RES
Hs-578T = test system: Hs-578T
Malme-3M = test system: Malme-3M
SN12C = test system: SN12C
SK-MEL-28 = test system: SK-MEL-28
786-0 = test system: 786-0
HOP-92 = test system: HOP-92
TK-10 = test system: TK-10
SNB-19 = test system: SNB-19
A549 = test system: A549
U-251 = test system: U-251
COLO 205 = test system: COLO 205
SK-OV-3 = test system: SK-OV-3
MCF7 = test system: MCF7

Structure (SMILES) | GI50 (UACC-257) | GI50 (NCI-H460) | GI50 (HOP-62) | GI50 (CAKI-1) | GI50 (SR) | GI50 (NCI/ADR-RES) | GI50 (Hs-578T) | GI50 (Malme-3M) | GI50 (SN12C) | GI50 (SK-MEL-28) | GI50 (786-0) | GI50 (HOP-92) | GI50 (TK-10) | GI50 (SNB-19) | GI50 (A549) | GI50 (U-251) | GI50 (COLO 205) | GI50 (SK-OV-3) | GI50 (MCF7)
O=C(O)CSCC(=O)O | > 100 µM (inactive) | > 100 µM (inactive) | > 100 µM (inactive) | > 100 µM (inactive) | > 100 µM (inactive) | > 100 µM (inactive) | > 100 µM (inactive) | > 100 µM (inactive) | > 100 µM (inactive) | > 100 µM (inactive) | > 100 µM (inactive) | > 100 µM (inactive) | > 100 µM (inactive) | > 100 µM (inactive) | > 100 µM (inactive) | > 100 µM (inactive) |  |  | 
C#CCCOC1(OC)N=NC(C)(C)O1 (stereo unspecified) | > 100 µM (inactive) | > 100 µM (inactive) | > 100 µM (inactive) |  | > 100 µM (inactive) | > 100 µM (inactive) | > 100 µM (inactive) | > 100 µM (inactive) | > 100 µM (inactive) | > 100 µM (inactive) | > 100 µM (inactive) | > 100 µM (inactive) |  | > 100 µM (inactive) | > 100 µM (inactive) | > 100 µM (inactive) | > 100 µM (inactive) |  | 
COc1ccc(OCC(=N/NC(=O)c2ccncc2)/N=C/c2cccnc2)cc1 | > 100 µM (inactive) | > 100 µM (inactive) | 72.1 µM (inactive) | > 100 µM (inactive) |  | > 100 µM (inactive) | 57.9 µM (inactive) | 43.6 µM (inactive) | > 100 µM (inactive) | 94.8 µM (inactive) | > 100 µM (inactive) |  | > 100 µM (inactive) | > 100 µM (inactive) | 92.9 µM (inactive) | > 100 µM (inactive) | 64.6 µM (inactive) | > 100 µM (inactive) | 73.1 µM (inactive)
Cc1cc(Cc2c(F)c(F)c(C(c3cc(C)no3)c3c(F)c(F)c(F)c(F)c3F)c(F)c2F)on1 (stereo unspecified) | 5.32 µM (inactive) | 6.41 µM (inactive) | > 100 µM (inactive) | > 72.8 µM (inactive) | > 25.7 µM (inactive) | > 28.2 µM (inactive) |  | > 100 µM (inactive) | > 50.7 µM (inactive) | > 38.8 µM (inactive) | > 100 µM (inactive) | > 100 µM (inactive) | > 100 µM (inactive) | > 100 µM (inactive) | > 100 µM (inactive) | 18.4 µM (inactive) | > 100 µM (inactive) |  | 6.76 µM (inactive)
CCOC(=O)C1=C(N2CCCC2)NC(=O)CC1=O | > 100 µM (inactive) |  | > 100 µM (inactive) | > 100 µM (inactive) | > 100 µM (inactive) | > 100 µM (inactive) | > 100 µM (inactive) | > 100 µM (inactive) | > 100 µM (inactive) | > 100 µM (inactive) | > 100 µM (inactive) | > 100 µM (inactive) | > 100 µM (inactive) | > 100 µM (inactive) | > 100 µM (inactive) | > 100 µM (inactive) | > 100 µM (inactive) | > 100 µM (inactive) | 
N#Cc1c2c(c(Nc3cccc(C(F)(F)F)c3)n3c1nc1ccccc13)CCCC2 | 22.2 µM (inactive) | 23.1 µM (inactive) | 16 µM (inactive) | 22.5 µM (inactive) |  | 14.8 µM (inactive) |  | 21.3 µM (inactive) | 22.8 µM (inactive) | 18.2 µM (inactive) | 13.1 µM (inactive) | 3.99 µM (inactive) | 16.3 µM (inactive) |  |  | 11.5 µM (inactive) | > 100 µM (inactive) | 17.1 µM (inactive) | 
CCOC(=O)C(NC(=O)c1ccccc1)(N1CCN(c2cc3c(cc2F)c(=O)c(C(=O)O)cn3C2CC2)CC1)C(F)(F)F (stereo unspecified) |  | 21 µM (inactive) | 31 µM (inactive) | 19.3 µM (inactive) | 20.5 µM (inactive) |  | 26.2 µM (inactive) | 20.2 µM (inactive) | 26.4 µM (inactive) | 28 µM (inactive) | 32.4 µM (inactive) | 19.8 µM (inactive) |  | 29.2 µM (inactive) | 34 µM (inactive) | 29.9 µM (inactive) | 17.1 µM (inactive) | 28.6 µM (inactive) | 
NC(=O)CC1OC(=O)Cc2cc3c(c(O)c21)C(=O)c1c(O)cccc1C3=O (stereo unspecified) | > 100 µM (inactive) | 89.5 µM (inactive) |  | > 100 µM (inactive) | 43.7 µM (inactive) | > 100 µM (inactive) |  | > 100 µM (inactive) | > 100 µM (inactive) | > 100 µM (inactive) | > 100 µM (inactive) | > 100 µM (inactive) | > 100 µM (inactive) | > 100 µM (inactive) | > 100 µM (inactive) | > 100 µM (inactive) | 61.2 µM (inactive) | > 100 µM (inactive) | > 100 µM (inactive)
CCOC(=O)CCC(NC(=O)c1ccc(OCc2ccc3nc(OC)c(OC)nc3c2)cc1)C(=O)OCC (stereo unspecified) | 29.1 µM (inactive) | 22.6 µM (inactive) | > 100 µM (inactive) | > 100 µM (inactive) | 45.1 µM (inactive) |  | 33.9 µM (inactive) | 21.4 µM (inactive) | 45.3 µM (inactive) | 44.6 µM (inactive) | > 100 µM (inactive) | 40.9 µM (inactive) | 35.2 µM (inactive) | 74.3 µM (inactive) | > 100 µM (inactive) | > 100 µM (inactive) | 16.7 µM (inactive) | > 100 µM (inactive) | 35.1 µM (inactive)
Cn1c2ccccc2c2c(-c3ccccc3)[n+]3ccccc3nc21 | 18.4 µM (inactive) | 21.9 µM (inactive) | 22.5 µM (inactive) | > 100 µM (inactive) | 23.9 µM (inactive) | > 100 µM (inactive) | 34.8 µM (inactive) | 24.3 µM (inactive) | 25.8 µM (inactive) | 20.5 µM (inactive) | 23.2 µM (inactive) | 14.6 µM (inactive) | 31.9 µM (inactive) | 65.8 µM (inactive) | 52.7 µM (inactive) | 24.8 µM (inactive) | 43.1 µM (inactive) | > 100 µM (inactive) | 
COc1ccc2cc3c4cc5c(cc4cc[n+]3cc2c1OC)OCO5 | 6.46 µM (inactive) | 17.9 µM (inactive) | 5.6 µM (inactive) |  |  | > 100 µM (inactive) | 3.26 µM (inactive) | 4.83 µM (inactive) | 2.52 µM (inactive) | 5.33 µM (inactive) | 10.2 µM (inactive) | 18.1 µM (inactive) | 19.9 µM (inactive) | 3.15 µM (inactive) | 18.3 µM (inactive) | 0.615 µM (active) | 2.08 µM (inactive) | 29.4 µM (inactive) | 20 µM (inactive)
O=C1c2ccccc2C2(c3ccc(Cl)cc3)N[C@@H]3CCCC[C@@H]3N12 (stereo partly specified) | > 100 µM (inactive) | > 100 µM (inactive) | > 100 µM (inactive) | > 100 µM (inactive) | > 100 µM (inactive) |  | > 100 µM (inactive) |  | > 100 µM (inactive) | > 100 µM (inactive) | > 100 µM (inactive) | > 100 µM (inactive) | > 100 µM (inactive) | > 100 µM (inactive) | > 100 µM (inactive) | > 100 µM (inactive) | > 100 µM (inactive) | > 100 µM (inactive) | > 100 µM (inactive)
CN(C)C(=O)N1N[C@H](c2ccccc2)[C@@H]1c1ccccc1 | > 100 µM (inactive) |  | > 100 µM (inactive) | > 100 µM (inactive) |  | > 100 µM (inactive) |  | > 100 µM (inactive) | > 100 µM (inactive) | > 100 µM (inactive) | > 100 µM (inactive) | > 100 µM (inactive) | > 100 µM (inactive) | > 100 µM (inactive) | > 100 µM (inactive) | > 100 µM (inactive) | > 100 µM (inactive) | > 100 µM (inactive) | > 100 µM (inactive)
Cc1c(N/C=C(\C#N)C(=O)c2ccc(Cl)cc2)c(=O)n(-c2ccccc2)n1C | > 100 µM (inactive) | > 100 µM (inactive) |  | > 100 µM (inactive) |  | 43.9 µM (inactive) |  | > 100 µM (inactive) | > 100 µM (inactive) | > 100 µM (inactive) | > 100 µM (inactive) | > 100 µM (inactive) | 32.9 µM (inactive) | > 100 µM (inactive) | > 100 µM (inactive) | > 100 µM (inactive) | > 100 µM (inactive) | > 100 µM (inactive) | 62.1 µM (inactive)
NC(=O)NC(=O)c1cccc(C(=O)NC(N)=O)n1 | > 100 µM (inactive) | > 100 µM (inactive) | > 100 µM (inactive) | > 100 µM (inactive) | > 100 µM (inactive) | > 100 µM (inactive) |  | > 100 µM (inactive) | > 100 µM (inactive) | > 100 µM (inactive) | > 100 µM (inactive) | 24 µM (inactive) | > 100 µM (inactive) | > 100 µM (inactive) | > 100 µM (inactive) | > 100 µM (inactive) | > 10 µM (inactive) | > 100 µM (inactive) | > 100 µM (inactive)
Cc1cccc(/C=N/NC(=S)N2CCCCCC2)n1 | 0.0418 µM (active) | 0.0977 µM (active) | 0.219 µM (active) | 0.369 µM (active) |  | < 0.01 µM (active) | 9.59 µM (inactive) | 0.313 µM (active) | 0.101 µM (active) | 0.608 µM (active) | 0.0724 µM (active) | 0.519 µM (active) |  | 0.543 µM (active) | 0.111 µM (active) | < 0.0417 µM (active) | < 0.0269 µM (active) | 0.556 µM (active) | < 0.01 µM (active)
O=C(c1ccco1)N1CCCN(C(=O)c2ccco2)C1=S | > 100 µM (inactive) | > 100 µM (inactive) | 72.1 µM (inactive) | > 100 µM (inactive) |  | > 100 µM (inactive) | > 100 µM (inactive) | 33 µM (inactive) | > 100 µM (inactive) | > 100 µM (inactive) | > 100 µM (inactive) |  | > 100 µM (inactive) | > 100 µM (inactive) |  | > 100 µM (inactive) | > 100 µM (inactive) | > 100 µM (inactive) | 74.8 µM (inactive)
